Among the data in US7750017B2, “Heterocycles” (Bayer Schering Pharma Aktiengesellschaft, priority 2004, dated 2010) are IC50 values, retold here.

The structures appear in SMILES notation. Counter-ions that a name gives are not always drawn.

For experiment [1], the system named is A431 cells [human epidermoid carcinoma, overexpressing HER1 (EGFR, ErbB1)]. Put plainly: In vitro tumor cell proliferation assay (Cell Titer-Glo luminescent cell viability), A431 cells. As to conditions: A-431, 72 h, 72 hours of drug exposure, Cell Titer-Glo readout, read-out: IC50, anti-proliferative activity in A431 cells. It is filed as cell-based. From the text:
(§1) The utility of the compounds of the present invention can be illustrated, for example, by their activity in vitro in the in vitro tumor cell proliferation assay described below. The link between activity in tumor cell proliferation assays in vitro and anti-tumor activity in the clinical setting has been very well established in the art.
(§2) The following assay is one of the methods by which compound activity relating to treatment of the disorders identified herein can be determined.
(§3) The tumor cell proliferation assay used to test the compounds of the present invention involves a readout called Cell Titer-Glow® Luminescent Cell Viability Assay developed by Promega® (Cunningham, B A “A Growing Issue: Cell Proliferation Assays, Modern kits ease quantification of cell growth” The Scientist 2001, 15(13), 26, and Crouch, S P et al., “The use of ATP bioluminescence as a measure of cell proliferation and cytotoxicity” Journal of Immunological Methods 1993, 160, 81-88), that measures inhibition of cell proliferation. Generation of a luminescent signal corresponds to the amount of ATP present, which is directly proportional to the number of metabolically active (proliferating) cells.
(§4) A431 cells [human epidermoid carcinoma, ATCC # […], overexpressing HER1 (EGFR, ErbB1)] and BT474 [human breast carcinoma, ATCC # CRL-1555, overexpressing HER2 (ErbB2)] were plated at a density of 2.5×10^3 cells/well in 96 well black-clear bottom tissue culture plates in RPMI media with 10% Fetal Bovine Serum and incubated at 37° C. Twenty-four hours later, test compounds are added at a final concentration range from as high 100 μm to as low 64 pM depend on the activities of the tested compounds in serial dilutions at a final DMSO concentration of 0.1%. Cells were incubated for 72 hours at 37° C. in complete growth media after addition of the test compound. After 72 hours of drug exposure, the plates were equilibrated to room temperature for approximately 30 min. Then, using a Promega Cell Titer Glo Luminescent® assay kit, lysis buffer containing 100 microliters of the enzyme luciferase and its substrate, luciferin mixture, was added to each well. The plates were mixed for 2 min on orbital shaker to ensure cell lysis and incubated for 10 min at room temperature to stabilize luminescence signal. The samples were read on VICTOR 2 using Luminescence protocol, and analyzed with Analyze5 software to generate IC50 values.

The subject of experiment [2] is BT474 [human breast carcinoma, overexpressing HER2 (ErbB2)]. Put plainly: In vitro tumor cell proliferation assay (Cell Titer-Glo luminescent cell viability), BT474 cells. It is filed as cell-based. Particulars: BT-474, 72 h, 72 hours of drug exposure, Cell Titer-Glo readout, read-out: IC50, anti-proliferative activity in BT474 cells.
Text: as §1, §2, §3, §4

In the case of `CS(=O)(=O)CCNCCc1ccc2c(c1)sc1ncnc(Nc3ccc(OCc4cccc(F)c4)c(Cl)c3)c12` [Example 4, N-{3-chloro-4-[(3-fluorobenzyl)oxy]phenyl}-7-(2-{[2-(methylsulfonyl)ethyl]amino}ethyl)[1]benzothieno[2,3-d] pyrimidin-4-amine], the IC50 is no more than 50 µM in experiment [1] and no more than 0.5 µM in experiment [2].

Take `OCCc1ccc2c(c1)sc1ncnc(Nc3ccc(OCc4cccc(F)c4)c(Cl)c3)c12` [Example 2, 2-[4-({3-chloro-4-[(3-fluorobenzyl)oxy]phenyl}amino)[1]benzothieno[2,3-d]pyrimidin-7-yl]ethanol]: the IC50 in experiment [1] and in experiment [2] was no more than 5 µM in each case.

Turning to `C=Cc1ccc2c(c1)sc1ncnc(Nc3ccc4c(cnn4Cc4ccccn4)c3)c12` [Example 130, N-[1-(pyridin-2-ylmethyl)-1H-indazol-5-yl]-7-vinyl[1] benzothieno[2,3-d]pyrimidin-4-amine], the IC50 in experiment [1] was no more than 50 µM; in experiment [2] it was no more than 0.5 µM.

Take `OC[C@H](O)COc1ccc2c(c1)sc1ncnc(Nc3ccc(OCc4ccccn4)c(Cl)c3)c12` [Example 112, (2S)-3-[(4-{[3-chloro-4-(pyridin-2-ylmethoxy)phenyl]amino}[1]benzothieno[2,3-d]pyrimidin-7-yl)oxy]propane-1,2-diol]: the IC50 was no more than 5 µM in experiment [1] and no more than 0.5 µM in experiment [2].

Take `CN1CCN(C(=O)CCc2ccc3c(c2)sc2ncnc(Nc4ccc(OCc5cccc(F)c5)c(Cl)c4)c23)CC1` [Example 66, N-{3-chloro-4-[(3-fluorobenzyl)oxy]phenyl}-7-[3-(4-methylpiperazin-1-yl)-3-oxopropyl][1]benzothieno[2,3-d]pyrimidin-4-amine]: the 50% inhibitory concentration (IC50) is no more than 50 µM in experiment [1] and no more than 5 µM in experiment [2].

`COCCNCCc1ccc2c(c1)sc1ncnc(Nc3ccc(OCc4ccccn4)c(Cl)c3)c12` [Example 86, N-[3-chloro-4-(pyridin-2-ylmethoxy)phenyl]-7-{2-[(2-methoxyethyl)amino]ethyl}[1] benzothieno[2,3-d]pyrimidin-4-amine trifluoroacetate]: the IC50 was no more than 5 µM in experiment [1] and no more than 0.5 µM in experiment [2].

For the compound `Oc1ccc2c(c1)sc1ncnc(Nc3ccc(OCc4cccc(F)c4)c(Cl)c3)c12` [Example 34, 4-({3-chloro-4-[(3-fluorobenzyl)oxy]phenyl}amino)[1]benzothieno[2,3-d]pyrimidin-7-ol], the IC50 in experiment [1] was no more than 50 µM; in experiment [2], no more than 0.5 µM.

For `Fc1cccc(COc2ccc(Nc3ncnc4sc5cc(N6CCOCC6)ccc5c34)cc2Cl)c1` [Example 44, [3-Chloro-4-(3-fluoro-benzyloxy)-phenyl]-(7-morpholin-4-yl-benzo[4,5]thieno[2,3-d]pyrimidin-4-yl)-amine], the IC50 was no more than 50 µM in experiment [1] and no more than 0.5 µM in experiment [2].

Turning to `CN1CCN(C(=O)Cc2ccc3c(c2)sc2ncnc(Nc4ccc(OCc5cscn5)c(Cl)c4)c23)CC1` [Example 138, N-[3-chloro-4-(1,3-thiazol-4-ylmethoxy)phenyl]-7-[2-(4-methylpiperazin-1-yl)-2-oxoethyl][1]benzothieno[2,3-d] pyrimidin-4-amine], the IC50 in experiment [1] and in experiment [2] was no more than 5 µM in each case.

For the compound `CN(C)CCNC(=O)/C=C/c1ccc2c(c1)sc1ncnc(Nc3ccc(OCc4cccc(F)c4)c(Cl)c3)c12` [Example 54, (2E)-3-[4-({3-chloro-4-[(3-fluorobenzyl)oxy]phenyl}amino) [1]benzothieno[2,3-d]pyrimidin-7-yl]-N-[2-(dimethylamino)ethyl]acrylamide], the figures for the IC50 in experiment [1] and in experiment [2] were no more than 50 µM and no more than 5 µM, respectively.

With `O=C(O)Cc1ccc2c(c1)sc1ncnc(Nc3ccc(OCc4ccccn4)c(Cl)c3)c12` [Example 94, (4-{[3-chloro-4-(pyridin-2-ylmethoxy)phenyl]amino}[1]benzothieno[2,3-d]pyrimidin-7-yl)acetic acid], the IC50 is no more than 50 µM in experiment [1] and no more than 5 µM in experiment [2].

In the case of `Fc1cccc(Cn2ncc3cc(Nc4ncnc5sc6cc(N7CCNCC7)ccc6c45)ccc32)c1` [Example 119, N-[1-(3-fluorobenzyl)-1H-indazol-5-yl]-7-piperazin-1-yl[1]benzothieno [2,3-d]pyrimidin-4-amine], the concentration for half-maximal inhibition (IC50) in experiment [1] is no more than 5 µM; in experiment [2], no more than 0.5 µM.

With `Fc1cccc(COc2ccc(Nc3ncnc4sc5cc(OCCN6CCOCC6)ccc5c34)cc2Cl)c1` [Example 38, N-{3-chloro-4-[(3-fluorobenzyl)oxy]phenyl}-7-(2-morpholin-4-ylethoxy) [1]benzothieno[2,3-d]pyrimidin-4-amine], the concentration for half-maximal inhibition (IC50) was no more than 5 µM in experiment [1] and no more than 0.5 µM in experiment [2].

On to `Fc1cccc(COc2ccc(Nc3ncnc4sc5cc(CCN6CCCCC6)ccc5c34)cc2Cl)c1` [Example 17, N-{3-chloro-4-[(3-fluorobenzyl)oxy]phenyl}-7-(2-piperidin-1-ylethyl)[1] benzothieno[2,3-d]pyrimidin-4-amine], for which the IC50 is no more than 5 µM in experiment [1] and no more than 0.5 µM in experiment [2].

`COCCN(CCOC)C(=O)Cc1ccc2c(c1)sc1ncnc(Nc3ccc(OCc4ccccn4)c(Cl)c3)c12` [Example 101, 2-(4-{[3-chloro-4-(pyridin-2-ylmethoxy)phenyl]amino}[1]benzothieno[2,3-d]pyrimidin-7-yl)-N,N-bis (2-methoxyethyl)acetamide]: the IC50 in experiment [1] and in experiment [2] was no more than 5 µM each time.

For `O=C(Cc1ccc2c(c1)sc1ncnc(Nc3ccc(OCc4cscn4)c(Cl)c3)c12)NCCO` [Example 141, 2-(4-{[3-chloro-4-(1,3-thiazol-4-ylmethoxy)phenyl]amino}[1]benzothieno[2,3-d]pyrimidin-7-yl)-N-(2-hydroxyethyl)acetamide], the IC50 in experiment [1] was no more than 50 µM; in experiment [2], no more than 5 µM.

In the case of `Clc1cc(Nc2ncnc3sc4cc(CCN5CCCC5)ccc4c23)ccc1OCc1ccccn1` [Example 87, N-[3-chloro-4-(pyridin-2-ylmethoxy)phenyl]-7-(2-pyrrolidin-1-ylethyl)[1]benzothieno[2,3-d] pyrimidin-4-amine trifluoroacetate], the IC50 is no more than 50 µM in experiment [1] and no more than 5 µM in experiment [2].

In the case of `OCCc1ccc2c(c1)sc1ncnc(Nc3ccc4c(cnn4Cc4cccc(F)c4)c3)c12` [Example 127, 2-(4-{[1-(3-fluorobenzyl)-1H-indazol-5-yl]amino}[1]benzothieno [2,3-d]pyrimidin-7-yl)ethanol], the IC50 is no more than 5 µM in experiment [1] and no more than 0.5 µM in experiment [2].

For `CCN1CCN(C(=O)C(O)C(O)c2ccc3c(c2)sc2ncnc(Nc4ccc(OCc5cccc(F)c5)c(Cl)c4)c23)CC1` (stereo not shown) [Example 56, 1-[4-({3-chloro-4-[(3-fluorobenzyl)oxy]phenyl}amino)[1]benzothieno[2,3-d]pyrimidin-7-yl]-3-(4-ethylpiperazin-1-yl)-3-oxopropane-1,2-diol], the IC50 is no more than 50 µM in experiment [1] and no more than 5 µM in experiment [2].

`Fc1cccc(Cn2ncc3cc(Nc4ncnc5sc6cc(CCN7CCOCC7)ccc6c45)ccc32)c1` [Example 129, N-[1-(3-fluorobenzyl)-1H-indazol-5-yl]-7-(2-morpholin-4-ylethyl) [1]benzothieno[2,3-d]pyrimidin-4-amine]: the IC50 in experiment [1] is no more than 5 µM; in experiment [2], no more than 0.5 µM.

With `Fc1cccc(COc2ccc(Nc3ncnc4sc5cc(CCN6CCOCC6)ccc5c34)cc2Cl)c1` [Example 10, N-{3-chloro-4-[(3-fluorobenzyl)oxy]phenyl}-7-(2-morpholin-4-ylethyl)[1] benzothieno[2,3-d]pyrimidin-4-amine], the IC50 in experiment [1] is no more than 50 µM; in experiment [2], no more than 0.5 µM.

Turning to `O=C(Cc1ccc2c(c1)sc1ncnc(Nc3ccc(OCc4ccccn4)c(Cl)c3)c12)NCCN1CCOCC1` [Example 97, 2-(4-{[3-chloro-4-(pyridin-2-ylmethoxy)phenyl]amino}[1]benzothieno[2,3-d]pyrimidin-7-yl)-N-(2-morpholin-4-ylethyl) acetamide], the IC50 in experiment [1] is no more than 50 µM; in experiment [2], no more than 0.5 µM.

`OC[C@@H](O)c1ccc2c(c1)sc1ncnc(Nc3ccc(OCc4ccccn4)c(Cl)c3)c12` [Example 74, (1S)-1-(4-{[3-chloro-4-(pyridin-2-ylmethoxy)phenyl]amino}[1]benzothieno[2,3-d]pyrimidin-7-yl)ethane-1,2-diol]: the IC50 in experiment [1] was no more than 50 µM; in experiment [2], no more than 0.5 µM.
